In the supplement of paper PMC10307832:

Assays:
Assay in all cases: relative viability (nuclei count vs DMSO), 5 days (fraction); higher = more cells survive
BX 795 + Tozasertib = compound: O=C(NCCCNc1nc(Nc2cccc(NC(=O)N3CCCC3)c2)ncc1I)c1cccs1 [BX 795] + Cc1cc(Nc2cc(N3CCN(C)CC3)nc(Sc3ccc(NC(=O)C4CC4)cc3)n2)n[nH]1 [Tozasertib] (partner 0.1 µM)
How it was run: (§1)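 Relative viability is defined as nuclei in treated wells over nuclei in vehicle wells. Duplicate plates were run and medians reported. Lung cancer cell lines in 1536-well plates were dosed by pin tool one day after seeding, with one drug or with a fixed anchor-drug dose plus five library-drug doses (not always all listed) in √10 steps, and nuclei were counted after 5 days.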

BX 795 + Dasatinib = compound: O=C(NCCCNc1nc(Nc2cccc(NC(=O)N3CCCC3)c2)ncc1I)c1cccs1 [BX 795] + Cc1nc(Nc2ncc(C(=O)Nc3c(C)cccc3Cl)s2)cc(N2CCN(CCO)CC2)n1 [Dasatinib] (partner 0.075 µM)
How it was run: as §1

BX 795 + Linsitinib = compound: O=C(NCCCNc1nc(Nc2cccc(NC(=O)N3CCCC3)c2)ncc1I)c1cccs1 [BX 795] + C[C@]1(O)C[C@@H](c2nc(-c3ccc4ccc(-c5ccccc5)nc4c3)c3c(N)nccn32)C1 [Linsitinib] (partner 1 µM)
How it was run: as §1

BX 795 + Crizotinib = compound: O=C(NCCCNc1nc(Nc2cccc(NC(=O)N3CCCC3)c2)ncc1I)c1cccs1 [BX 795] + C[C@@H](Oc1cc(-c2cnn(C3CCNCC3)c2)cnc1N)c1c(Cl)ccc(F)c1Cl [Crizotinib] (partner 1 µM)
How it was run: as §1

BX 795 + OSI-027 = compound: O=C(NCCCNc1nc(Nc2cccc(NC(=O)N3CCCC3)c2)ncc1I)c1cccs1 [BX 795] + COc1cccc2cc(-c3nc([C@H]4CC[C@H](C(=O)O)CC4)n4ncnc(N)c34)[nH]c12 [OSI-027] (partner 0.5 µM)
How it was run: as §1

Cell Line | relative viability (BX 795 + Tozasertib; first compound 0.04 µM) | relative viability (BX 795 + Tozasertib; first compound 0.1265 µM) | relative viability (BX 795 + Tozasertib; first compound 0.4 µM) | relative viability (BX 795 + Tozasertib; first compound 1.265 µM) | relative viability (BX 795 + Dasatinib; first compound 0.04 µM) | relative viability (BX 795 + Dasatinib; first compound 0.1265 µM) | relative viability (BX 795 + Dasatinib; first compound 0.4 µM) | relative viability (BX 795 + Dasatinib; first compound 1.265 µM) | relative viability (BX 795 + Linsitinib; first compound 0.04 µM) | relative viability (BX 795 + Linsitinib; first compound 0.1265 µM) | relative viability (BX 795 + Linsitinib; first compound 0.4 µM) | relative viability (BX 795 + Linsitinib; first compound 1.265 µM) | relative viability (BX 795 + Crizotinib; first compound 0.04 µM) | relative viability (BX 795 + Crizotinib; first compound 0.1265 µM) | relative viability (BX 795 + Crizotinib; first compound 0.4 µM) | relative viability (BX 795 + Crizotinib; first compound 1.265 µM) | relative viability (BX 795 + OSI-027; first compound 0.04 µM) | relative viability (BX 795 + OSI-027; first compound 0.1265 µM) | relative viability (BX 795 + OSI-027; first compound 0.4 µM) | relative viability (BX 795 + OSI-027; first compound 1.265 µM)
COR-L 105 | 0.391 | 0.362 | 0.405 | 0.267 | 0.367 | 0.357 | 0.278 | 0.255 | 1.08 | 0.768 | 0.849 | 0.447 | 0.789 | 0.588 | 0.56 | 0.279 | 0.659 | 0.665 | 0.582 | 0.466
NCI-H2085 | 0.797 | 0.84 | 0.771 | 0.66 | 0.25 | 0.214 | 0.221 | 0.249 | 0.883 | 0.961 | 1.04 | 0.737 | 0.911 | 0.841 | 0.843 | 0.732 | 0.732 | 0.817 | 0.73 | 0.648
NCI-H2228 | 0.283 | 0.247 | 0.303 | 0.217 | 0.568 | 0.594 | 0.388 | 0.32 | 1.25 | 0.643 | 0.662 | 0.474 | 0.635 | 0.5 | 0.572 | 0.288 | 0.483 | 0.641 | 0.471 | 0.265
ChaGo-K-1 | 0.175 | 0.226 | 0.205 | 0.212 | 0.5 | 0.586 | 0.507 | 0.546 |  |  |  |  | 1.11 | 1.14 | 1.05 | 0.961 | 0.632 | 0.553 | 0.548 | 0.432
UMC-11 | 0.189 | 0.195 | 0.185 | 0.22 | 0.412 | 0.407 | 0.291 | 0.169 | 0.751 | 1.02 | 0.95 | 0.348 | 0.608 | 0.584 | 0.322 | 0.0915 | 0.469 | 0.43 | 0.371 | 0.27
A-427 | 0.227 | 0.148 | 0.179 | 0.136 | 0.796 | 0.611 | 0.709 | 0.545 | 1.17 | 1.13 | 1.15 | 0.982 | 0.906 | 0.924 | 0.771 | 0.446 | 0.514 | 0.476 | 0.51 | 0.299
SK-LU-1 | 0.312 | 0.356 |  | 0.211 | 0.142 | 0.181 |  | 0.135 | 1.03 | 1.13 | 0.722 | 0.777 | 0.96 | 0.92 | 0.459 | 0.498 | 0.327 | 0.427 |  | 0.245
NCI-H1666 | 0.642 | 0.69 | 0.599 | 0.403 | 0.847 | 0.851 | 0.736 | 0.569 | 0.777 | 1.07 | 1.05 | 0.74 | 1.16 | 1.05 | 1.13 | 0.769 | 0.859 | 0.876 | 0.993 | 0.803
